Experimental data from patent US7601754B2, “Flavonoid compounds as therapeutic antioxidants” (Antoxis Limited, priority 2002, dated 2009).
“And” between values parts separate entries of the source, which are not always exact repeats. Equal entries are not always repeated.

Key:
[1] = Kinetic measurements: stopped-flow ESR, reduction of galvinoxyl radical; type: physicochemical; conditions: for Second order rate constants (k2) for the reduction of galvinoxyl radical / reactivity with galvinoxyl (in words): ethanol; for Second order rate constants (k2) for the reduction of galvinoxyl radical: 20° C.±2° C., flavonoid 0.2 mM + galvinoxyl 0.2 mM, unit printed only in b437; for reactivity with galvinoxyl (in words): kinetics of reduction; for decrease in rate of reaction with galvinoxyl relative to quercetin: fold decrease, versus quercetin
Description: (§1) Within a biological system where a number of polyphenols may be present at similar concentrations, antioxidant efficacy may be predominantly governed by reaction kinetics rather than stoichiornetry. Consequently, the antioxidant potential of thirteen flavonoids and vitamin E were assessed and their kinetic and stochiometric reduction of a synthetic radical using stopped-flow electron spin resonance (ESR) spectroscopy has been compared. The radical used was galvinoxyl (Galv-O°), (2,6-di-tert-butyl-α-(3,5-di-tert-butyl-4-oxo-2,5-cyclohexadien-1-ylidene)-p-tolyloxy) shown below:
Galv-O°+Phenol-OH≈Galv-OH+phenol-O°
The process is governed by the O—H bond dissociation enthalpy of the donor.
Ethanolic solutions of flavonoid (0.2 mM) and galvinoxyl (0.2 mM) were de-oxygenated under a stream of nitrogen gas. Aliquots (6 ml) were transferred to Hamilton gas-tight syringes (10 ml) coupled to a pneumatic ram and connected to a two-stream ESR quartz flow-cell. In situ reaction at 20° C.±2° C. between the flavonoid and galvinoxyl was initiated by rapidly evacuating the syringes. […] Decay curves were obtained by operating in timesweep mode with the static field set at the resonance maximum of the galvinoxyl signal.

[2] = Stoichiometric measurements: ESR, reduction of excess galvinoxyl radical; type: physicochemical; conditions: galvinoxyl radicals reduced per molecule, ethanol, flavonoid 0.1 mM + galvinoxyl 0.5 mM, 5 minutes from mixing
Description: as §1
Ethanolic solutions of flavonoids (0.1 mM) were prepared. Aliquots (3 ml) of an ethanolic galvinoxyl solution (0.5 mM) were mixed with an equal volume of flavonoid solution then transferred to an ESR quartz cell. The spectra and reaction stoichiometry were evaluated. In brief, the spectra of the unreacted galvinoxyl were obtained 5 minutes from mixing, by which time equilibration was complete. The galvinoxyl concentrations remaining were calculated by double integration of the signal and comparing with the control experiment where ethanol was added to the galvinoxyl solution instead of flavonoid solution.
The stoichiometry of the reaction of these compounds with the galvinoxyl free radical was determined by adding the flavonoid, or vitamin E, to an excess of the radical and allowing the reaction to proceed to the endpoint.

[3] = test system: rat liver microsomes from vitamin E-deficient rats; test: Inhibition of TBARS production in rat liver microsomes from vitamin E-deficient rats; type: biochemical; conditions: for TBARS production (Mean): after 20 minutes incubation with Fe(II)-ADP/ascorbate, normalised to a tocopherol reading of 20, 30 minutes pre-incubation, higher reading = lower protection; for membrane protection against TBARS production (in words): over the 20 minute oxidation period
Description: Inhibition of TBARS production in rat liver microsomes from vitamin E-deficient rats by pre-incubation with target antioxidant and related compounds. Microsomes are subcellular fractions containing membrane fragments. In vitamin E-deficient rats, microsomes are especially prone to oxidative free radical damage. This can be quantified in terms of the production of thiobarbituric acid reactive substances (TBARS) which result from radical-mediated destruction of the polyunsaturated fatty acid constituents. Consequently, this is a useful biological model to determine the efficacy of phytochemicals as antioxidant membrane protectants. Vitamin E-deficient microsomal suspensions were incubated for 30 minutes with one of myricetin, sample A, sample B, sample C (as shown below) or d-alpha-tocopherol, or with a compound 9c, 9d, 9e, 9e*, 9f, 9g, 9g*, 9h, 9i* or 9j (prepared as described above in Examples 1 to 10). […] TBARS production was then measured by HPLC.

| Compound | Second order rate constants (k2) for the reduction of galvinoxyl radical [1] | Reaction Stoichiometry for the reduction of galvinoxyl radical [2] | TBARS production (Mean) [3] | also measured |
| --- | --- | --- | --- | --- |
| Cc1c(C)c2c(c(C)c1O)CC[C@@](C)(CCC[C@H](C)CCC[C@H](C)CCCC(C)C)O2 [Vitamin E, d-(2R,4′R,8′R)-α-Tocopherol] | 524 ± 48 mol^−1 dm^3 s^−1 | 2.14 ± 0.12 |  | TBARS production (Mean) ([3]; listed as da-toc): 19.9996 and 20 |
| O=c1c(O)c(-c2ccc(O)c(O)c2)oc2cc(O)cc(O)c12 [Quercetin] | 2383 ± 258 mol^−1 dm^3 s^−1 | 3.27 ± 0.04 |  | change of rate constant compared with luteolin (in words) ([1]; versus luteolin): doubling; Reaction Stoichiometry for the reduction of galvinoxyl radical ([2]; listed as quercetin): 3.3 |
| O=c1c(O)c(-c2cc(O)c(O)cc2O)oc2ccccc12 [Control C] |  |  | 186.6221 |  |
| CCCCCCCCCCc1ccc2c(=O)c(O)c(-c3cc(O)c(O)cc3O)oc2c1 [compound 13g, 3,2′,4′,5′-tetrahydroxy-7-decyl-flavone] |  |  | 20.1401 | membrane protection against TBARS production (in words) [3]: good membrane protection |
| Catechin | 1574 ± 79 mol^−1 dm^3 s^−1 | 2.96 ± 0.01 |  |  |
| O=c1c(O)c(-c2ccccc2O)oc2cc(O)cc(O)c12 [Datiscetin] | 22 ± 2 mol^−1 dm^3 s^−1 | 1.74 ± 0.02 |  | Second order rate constants (k2) for the reduction of galvinoxyl radical ([1]; listed as datiscetin): 22 mol^−1 dm^3 s^−1; reduction in rate constant relative to kaempferol ([1]; fold reduction, versus kaempferol): 56 fold; Reaction Stoichiometry for the reduction of galvinoxyl radical ([2]; listed as datiscetin): ~1.8 |
| O=c1cc(-c2ccc(O)c(O)c2)oc2cc(O)cc(O)c12 [Luteolin] | 1212 ± 45 mol^−1 dm^3 s^−1 | 3.24 ± 0.01 |  |  |
| O=c1c(O)c(-c2ccc(O)cc2O)oc2cc(O)cc(O)c12 [Morin] | 10134 ± 459 mol^−1 dm^3 s^−1 | 1.83 ± 0.01 |  | Second order rate constants (k2) for the reduction of galvinoxyl radical ([1]; listed as morin): 10134 mol^−1 dm^3 s^−1; reactivity with galvinoxyl (in words) [1]: fastest; increase in rate relative to kaempferol ([1]; fold increase, versus kaempferol): 8 fold; Reaction Stoichiometry for the reduction of galvinoxyl radical ([2]; listed as morin): 1.8 |
| CCCCCCCCCCCCc1ccc2c(=O)c(O)c(-c3cc(O)c(O)c(O)c3)oc2c1 [compound 9h, 3-Hydroxy-2-(3,4,5-trihydroxy-phenyl)-7-dodecyl-chromen-4-one] |  |  | 62.1021 |  |
| CCCCCCCCc1ccc2c(=O)c(O)c(-c3cc(O)c(O)c(O)c3)oc2c1 [9f, 7-Octyl-3-hydroxy-2-(3,4,5-trihydroxy-phenyl)-chromen-4-one] |  |  | 46.1879 |  |
| O=c1c(O)c(-c2ccc(O)c(O)c2O)oc2ccccc12 [Control D] |  |  | 172.0899 |  |
| CCCCc1ccc2c(=O)c(O)c(-c3cc(O)c(O)c(O)c3)oc2c1 [9d, 7-Butyl-3-hydroxy-2-(3,4,5-trihydroxy-phenyl)-chromen-4-one] |  |  | 121.743 |  |
| CC(C)CCCC(C)CCCC(C)CCc1ccc2c(=O)c(O)c(-c3cc(O)c(O)c(O)c3)oc2c1 (stereo not drawn) [compound 9i*, 3-Hydroxy-2-(3,4,5-trihydroxy-phenyl)-7-(3,7,11-trimethyl-dodecyl)-chromen-4-one] |  |  | 32.9769 |  |
| CCCCCCCCCCc1ccc2oc(-c3cc(O)c(O)c(O)c3)c(O)c(=O)c2c1 [compound 11g, 6-Decyl-3-hydroxy-2-(3,4,5-trihydroxy-phenyl)-chromen-4-one] |  |  | 81.82 |  |
| O=c1c(O)c(-c2ccccc2)oc2cc(O)cc(O)c12 [Galangin] | 18 ± 1 mol^−1 dm^3 s^−1 | 1.01 ± 0.03 |  | reactivity with galvinoxyl (in words) [1]: reacted only very slowly |
| O=c1c(O)c(-c2cc(O)c(O)c(O)c2)oc2cc(O)cc(O)c12 [Myricetin] | 14463 ± 1767 mol^−1 dm^3 s^−1 | 4.08 ± 0.01 | 147.6 and 147.6306 | reactivity with galvinoxyl (in words) [1]: fastest; Reaction Stoichiometry for the reduction of galvinoxyl radical ([2]; listed as myricetin): 4.1; membrane protection against TBARS production (in words) [3]: almost no protection |
| O=C1c2c(O)cc(O)cc2O[C@H](c2ccc(O)c(O)c2)[C@H]1O (racemic) [Taxifolin] | 337 ± 32 mol^−1 dm^3 s^−1 | 2.82 ± 0.05 |  | decrease in rate of reaction with galvinoxyl relative to quercetin [1]: 7 fold; reduction in rate compared with catechin ([1]; fold reduction, versus catechin): 5 fold; Reaction Stoichiometry for the reduction of galvinoxyl radical ([2]; listed as taxifolin): 2.8 |
| O=c1c(O)c(-c2ccc(O)c(O)c2)oc2cc(O)ccc12 [Fisetin] | 1623 ± 199 mol^−1 dm^3 s^−1 | 3.68 ± 0.03 |  |  |
| COc1ccc([C@@H]2CC(=O)c3c(O)cc(O)cc3O2)cc1O [Hesperitin] | 6 ± 0.5 mol^−1 dm^3 s^−1 | 0.20 ± 0.02 |  | reactivity with galvinoxyl (in words) [1]: little reactivity |
| COc1cc(-c2oc3cc(O)cc(O)c3c(=O)c2O)cc(OC)c1OC [Tri-Ome-Myricetin, myricetin-3′,4′,5′-trimethylether] | 74 ± 14 mol^−1 dm^3 s^−1 | 1.06 ± 0.02 |  |  |
| CCc1ccc2c(=O)c(O)c(-c3cc(O)c(O)c(O)c3)oc2c1 [compound 9c, 7-Ethyl-3-hydroxy-2-(3,4,5-trihydroxy-phenyl)-chromen-4-one] |  |  | 117.461 |  |
| CCCCCCCCCCCCCCCCCCc1ccc2c(=O)c(O)c(-c3cc(O)c(O)c(O)c3)oc2c1 [compound 9j, 3-Hydroxy-7-octadecyl-2-(3,4,5-trihydroxy-phenyl)-chromen-4-one] |  |  | 107.849 |  |
| COc1ccc(-c2oc3cc(O)cc(O)c3c(=O)c2O)cc1O [Tamarixetin] | 165 ± 20 mol^−1 dm^3 s^−1 | 1.14 ± 0.03 |  | decrease in rate of reaction with galvinoxyl relative to quercetin [1]: 15 fold |
| CCCCCCCCCc1cccc2c(=O)c(O)c(-c3cc(O)c(O)cc3O)oc12 [compound 14] |  |  | 104.4307 |  |
| O=c1c(O)c(-c2cc(O)c(O)c(O)c2)oc2cc(O)ccc12 [Control A] |  |  | 158.348 |  |
| CCCCCCCCc1cc2c(=O)c(O)c(-c3cc(O)c(O)c(O)c3)oc2cc1CC [compound 12, 7-Ethyl-3-hydroxy-6-octyl-2-(3,4,5-trihydroxy-phenyl)-chromen-4-one] |  |  | 53.98 |  |
